Values quoted from earlier work as cited in US20210268080A1, “IMMUNE STIMULATING COMPOSITIONS FOR THE TREATMENT AND REVENTION OF INFECTIONS WITH INTRACELLULAR PATHOGENS” (priority 2018, published 2021).

Tested on: Trypanosoma cruzi

SMILES	onset of heart disease (adults with chronic Chagas infections)	cure rate (children aged six to 12 years with chronic disease)	patients who fail to complete the drug regimen due to toxicities (months-long regimen)	serum parasite detection (patients with established Chagas cardiomyopathy)	cardiac clinical deterioration (patients with established Chagas cardiomyopathy, five years of follow-up)	efficacy in human studies (human, in vivo)
O=C(Cn1ccnc1[N+](=O)[O-])NCc1ccccc1 [benznidazole]	slow the onset	about 60%	~20%	significantly reduced	did not significantly reduce	–
CC[C@@H]([C@H](C)O)n1ncn(-c2ccc(N3CCN(c4ccc(OC[C@@H]5CO[C@@](Cn6cncn6)(c6ccc(F)cc6F)C5)cc4)CC3)cc2)c1=O [posaconazole]	–	–	–	–	–	limited efficacy
